According to ChEMBL document CHEMBL3351580, “Pyrano-isochromanones as IL-6 inhibitors: synthesis, in vitro and in vivo antiarthritic activity” (J Med Chem, 2014):
Blank lines part the entries; values can stand above or below the compound they belong to. Calls of active or inactive are those of the source. The rule behind the calls is not given here.

How the values were obtained:
[1] = Inhibition of concanavalin A-induced cell proliferation of T cells (unknown origin) at 10 uM after 72 hrs by MTT assay; format: functional
B-cell = experiment: Inhibition of LPS-induced cell proliferation of B cells (unknown origin) at 10 uM after 72 hrs by MTT assay; format: functional
THP-1 [2] = experiment: Inhibition of LPS-induced TNFalpha production in human THP1 cells after 24 hrs; format: functional, cell-based; details: THP-1, 24 h
THP-1 [3] = experiment: Inhibition of LPS-induced IL6 production in human THP1 cells after 24 hrs; format: functional, cell-based; details: THP-1, 24 h
[4] = Solubility in water; format: physicochemical
Mus musculus [5] = experiment: Antiarthritic activity in BALB/c mouse assessed as reduction in SRBC-induced blood IL4 level administered orally once daily for 14 days measured 4 hrs post last dose by ELISA method; format: functional, organism-based
Mus musculus [6] = experiment: Antiarthritic activity in DBA/1J mouse collagen-induced arthritis model assessed as reduction in IL6 level at 3 to 30 mg/kg, po administered once daily for 49 days starting from onset of disease and measured after 3 to 49 days of disease onset by ELISA method; format: functional, organism-based
THP-1 [7] = experiment: Cytotoxicity against human THP1 cells after 24 hrs by MTT assay; format: cell-based; details: THP-1, 24 h
Mus musculus [8] = experiment: Antiarthritic activity in DBA/1J mouse collagen-induced arthritis model assessed as reduction in anticollagen antibody IgG2a level at 3 to 30 mg/kg, po administered once daily for 49 days starting from onset of disease and measured after 14 days of disease onset by ELISA method; format: functional, organism-based
Mus musculus [9] = experiment: Immunosuppressive activity in BALB/c mouse assessed as reduction in SRBC-induced humoral immunity by measuring IgG level at 3 to 30 mg/kg, po administered once daily for 14 days measured 4 hrs post last dose; format: functional, organism-based
Mus musculus [10] = experiment: Antiinflammatory activity in BALB/c mouse assessed as serum nitric oxide level at 100 mg/kg, po qd for 5 days followed by LPS challenge 1 hr after last compound dose on fifth day and measured 4 hrs post LPS challenge by Griess assay (reference value: 6.95 +/- 1.81 uM); format: functional
[11] = Therapeutic index, ratio of cytotoxic IC50 for human THP1 cells by MTT assay to IC50 for inhibition of LPS-induced IL6 production in human THP1 cells; format: cell-based, THP-1; details: read-out: Ratio IC50
THP-1 [12] = experiment: Inhibition of LPS-induced nitric oxide production in human THP1 cells at 10 uM after 24 hrs by Griess assay; format: functional; details: THP-1, 24 h
Mus musculus [13] = experiment: Immunosuppressive activity in BALB/c mouse assessed as reduction in SRBC-induced DTH response at 3 to 30 mg/kg, po administered once daily for 14 days measured 4 hrs post last dose; format: functional, organism-based
Mus musculus [14] = experiment: Antiinflammatory activity in BALB/c mouse assessed as serum TNFalpha level at 100 mg/kg, po qd for 5 days followed by LPS challenge 1 hr after last compound dose on fifth day and measured 4 hrs post LPS challenge by ELISA method (reference value: 717 +/- 218 pg/mL); format: functional
THP-1 [15] = experiment: Cytotoxicity against human THP1 cells after 48 hrs by MTT assay; format: cell-based; details: THP-1, 48 h
Mus musculus [16] = experiment: Antiarthritic activity in BALB/c mouse assessed as reduction in SRBC-induced blood IL2 level administered orally once daily for 14 days measured 4 hrs post last dose by ELISA method; format: functional, organism-based
Mus musculus [17] = experiment: Antiinflammatory activity in BALB/c mouse assessed as serum TNFalpha level at 10 mg/kg, po qd for 5 days followed by LPS challenge 1 hr after last compound dose on fifth day and measured 4 hrs post LPS challenge by ELISA method (reference value: 717 +/- 218 pg/mL); format: functional
Mus musculus [18] = experiment: Antiinflammatory activity in BALB/c mouse assessed as serum IL6 level at 100 mg/kg, po qd for 5 days followed by LPS challenge 1 hr after last compound dose on fifth day and measured 4 hrs post LPS challenge by ELISA method (reference value: 410 +/- 95 pg/mL); format: functional
Mus musculus [19] = experiment: Immunosuppressive activity in BALB/c mouse assessed as reduction in SRBC-induced humoral immunity by measuring IgM level at 3 to 30 mg/kg, po administered once daily for 14 days measured 4 hrs post last dose; format: functional, organism-based
Mus musculus [20] = experiment: Antiarthritic activity in DBA/1J mouse collagen-induced arthritis model assessed as reduction in IL-1beta level at 3 to 30 mg/kg, po administered once daily for 49 days starting from onset of disease and measured after 3 to 49 days of disease onset by ELISA method; format: functional, organism-based
THP-1 [21] = experiment: Inhibition of NFkappaB p65/rel expression in human THP1 cells at 20 to 100 uM by Western blotting method; format: functional, cell-based
Mus musculus [22] = experiment: Antiarthritic activity in DBA/1J mouse collagen-induced arthritis model assessed as reduction in anticollagen antibody IgG1 level at 3 to 30 mg/kg, po administered once daily for 49 days starting from onset of disease and measured after 14 days of disease onset by ELISA method; format: functional, organism-based
Mus musculus [23] = experiment: Antiinflammatory activity in BALB/c mouse assessed as serum nitric oxide level at 10 mg/kg, po qd for 5 days followed by LPS challenge 1 hr after last compound dose on fifth day and measured 4 hrs post LPS challenge by Griess assay (reference value: 6.95 +/- 1.81 uM); format: functional
Mus musculus [24] = experiment: Antiarthritic activity in DBA/1J mouse collagen-induced arthritis model assessed as reduction in TNFalpha level at 3 to 30 mg/kg, po administered once daily for 49 days starting from onset of disease and measured after 3 to 49 days of disease onset by ELISA method; format: functional, organism-based
Mus musculus [25] = experiment: Antiarthritic activity in DBA/1J mouse collagen-induced arthritis model assessed as reduction in anticollagen antibody IgG2a level at 3 to 30 mg/kg, po administered once daily for 49 days starting from onset of disease and measured after 49 days of disease onset by ELISA method; format: functional, organism-based
Mus musculus [26] = experiment: Antiarthritic activity in DBA/1J mouse collagen-induced arthritis model assessed as reduction in paw swelling at 30 mg/kg, po administered once daily for 49 days starting from onset of disease; format: functional; details: 1176 h
Mus musculus [27] = experiment: Antiarthritic activity in BALB/c mouse assessed as reduction in SRBC-induced blood IFNgamma level administered orally once daily for 14 days measured 4 hrs post last dose by ELISA method; format: functional, organism-based
[28] = molecular target: Inhibitor of NF-kappa-B kinase (IKK) (Homo sapiens) (UniProt O14920+O15111+Q9Y6K9); experiment: Inhibition of IKKbeta expression in human THP1 cells at 20 to 100 uM by Western blotting method; format: functional, cell-based; details: THP-1
THP-1 [29] = experiment: Inhibition of LPS-induced IL-1beta production in human THP1 cells at 10 uM after 24 hrs; format: functional; details: THP-1, 24 h
THP-1 [30] = experiment: Inhibition of NFkappaB expression in human THP1 cells up to 100 uM by Western blotting method; format: functional, cell-based
Mus musculus [31] = experiment: Antiinflammatory activity in BALB/c mouse assessed as serum IL6 level at 10 mg/kg, po qd for 5 days followed by LPS challenge 1 hr after last compound dose on fifth day and measured 4 hrs post LPS challenge by ELISA method (reference value: 410 +/- 95 pg/mL); format: functional
Mus musculus [32] = experiment: Antiarthritic activity in DBA/1J mouse collagen-induced arthritis model assessed as reduction in anticollagen antibody IgG1 level at 3 to 30 mg/kg, po administered once daily for 49 days starting from onset of disease and measured after 49 days of disease onset by ELISA method; format: functional, organism-based

Compound: COc1c(O)c(CN2C[C@@H](O)CC2C(=O)O)c2c(c1O)[C@@H]1O[C@H](CO)[C@@H](O)[C@H](O)[C@H]1OC2=O (stereo partly drawn)
inhibition at 10 µM [1]: 6.5%
inhibition at 10 µM (B-cell): 11.4%
IC50 (THP-1 [2]): > 30000 nM
IC50 (THP-1 [3]): 322 nM
solubility [4]: > 1500 µg/mL

Compound: COc1c(O)c(CN2CCC(Cc3ccccc3)CC2)c2c(c1O)[C@@H]1O[C@H](CO)[C@@H](O)[C@H](O)[C@H]1OC2=O
inhibition at 10 µM [1]: 16%
inhibition at 10 µM (B-cell): 18.2%
IC50 (THP-1 [2]): > 30000 nM
IC50 (THP-1 [3]): 371 nM
solubility [4]: > 1500 µg/mL

Compound: COc1c(O)cc2c(c1O)[C@@H]1O[C@H](CO)[C@@H](O)[C@H](O)[C@H]1OC2=O [BERGENIN]
inhibition at 10 µM [1]: 54.8%
inhibition (Mus musculus [5]): Dose-dependent effect
inhibition (Mus musculus [6]): Active
IC50 (THP-1 [7]): 130000 nM
inhibition (Mus musculus [8]): Active
inhibition (Mus musculus [9]): Active
Activity (Mus musculus [10]): 3.29 µM
inhibition at 10 µM (B-cell): 51.2%
selectivity ratio [11]: > 400
inhibition at 10 µM (THP-1 [12]): 39%
inhibition (Mus musculus [13]): Active
Activity (Mus musculus [14]): 509 pg/mL
IC50 (THP-1 [15]): 84000 nM
inhibition (Mus musculus [16]): Dose-dependent effect
Activity (Mus musculus [17]): 667 pg/mL
Activity (Mus musculus [18]): 55 pg/mL
inhibition (Mus musculus [19]): Active
IC50 (THP-1 [2]): 12500 nM
inhibition (Mus musculus [20]): Active
inhibition (THP-1 [21]): Active
inhibition (Mus musculus [22]): Active
Activity (Mus musculus [23]): 2.62 µM
inhibition (Mus musculus [24]): Active
inhibition (Mus musculus [25]): Active
IC50 (THP-1 [3]): 208 nM
solubility [4]: > 1500 µg/mL
inhibition in vivo at 30 mg/kg (Mus musculus [26]): 32%
inhibition (Mus musculus [27]): Dose-dependent effect
inhibition [28]: Active
inhibition at 10 µM (THP-1 [29]): 24%
inhibition (THP-1 [30]): inactive
Activity (Mus musculus [31]): 282 pg/mL
inhibition (Mus musculus [32]): Active

Compound: CCCN(CCC)Cc1c(O)c(OC)c(O)c2c1C(=O)O[C@@H]1[C@@H](O)[C@H](O)[C@@H](CO)O[C@@H]21
inhibition at 10 µM [1]: 10.3%
inhibition at 10 µM (B-cell): 2.8%
IC50 (THP-1 [2]): > 30000 nM
IC50 (THP-1 [3]): 361 nM
solubility [4]: > 1500 µg/mL

Compound: COc1c(O)c(CN2CCC(c3ccccc3)CC2)c2c(c1O)[C@@H]1O[C@H](CO)[C@@H](O)[C@H](O)[C@H]1OC2=O
inhibition at 10 µM [1]: 37.2%
inhibition at 10 µM (B-cell): 28.2%
IC50 (THP-1 [2]): > 30000 nM
IC50 (THP-1 [3]): 351 nM
solubility [4]: > 1500 µg/mL

More lines, main results first:

IC50 (THP-1 [2]): 25500 nM
IC50 (THP-1 [3]): 918 nM
solubility [4]: > 1500 µg/mL
Compound: COc1c(O)c(CN2CCC[C@H]2C(=O)O)c2c(c1O)[C@@H]1O[C@H](CO)[C@@H](O)[C@H](O)[C@H]1OC2=O
inhibition at 10 µM [1]: 17.3%
inhibition at 10 µM (B-cell): 28.2%

IC50 (THP-1 [2]): > 30000 nM
IC50 (THP-1 [3]): 177 nM
solubility [4]: > 1500 µg/mL
Compound: CCOC(=O)N1CCN(Cc2c(O)c(OC)c(O)c3c2C(=O)O[C@@H]2[C@@H](O)[C@H](O)[C@@H](CO)O[C@@H]32)CC1
inhibition at 10 µM [1]: 27%
inhibition at 10 µM (B-cell): 9%

IC50 (THP-1 [2]): > 30000 nM
IC50 (THP-1 [3]): 317 nM
solubility [4]: > 1500 µg/mL
Compound: COc1c(O)c(CN2CCCCC2)c2c(c1O)[C@@H]1O[C@H](CO)[C@@H](O)[C@H](O)[C@H]1OC2=O
inhibition at 10 µM [1]: 13%
inhibition at 10 µM (B-cell): 34.8%
